Read-outs that look alike come from different tables or passages of the source.
How the values were obtained:
recombinant human MAO-B [1] = molecular target: T1, recombinant human MAO-B (Homo sapiens, UniProt P27338); assay: Lineweaver–Burk plots / mode of MAO-B inhibition and Ki; format: biochemical
T1 construct: purchased Sigma-Aldrich; host or cells: insect cells (microsomes)
T1 sequence (P27338 1-520): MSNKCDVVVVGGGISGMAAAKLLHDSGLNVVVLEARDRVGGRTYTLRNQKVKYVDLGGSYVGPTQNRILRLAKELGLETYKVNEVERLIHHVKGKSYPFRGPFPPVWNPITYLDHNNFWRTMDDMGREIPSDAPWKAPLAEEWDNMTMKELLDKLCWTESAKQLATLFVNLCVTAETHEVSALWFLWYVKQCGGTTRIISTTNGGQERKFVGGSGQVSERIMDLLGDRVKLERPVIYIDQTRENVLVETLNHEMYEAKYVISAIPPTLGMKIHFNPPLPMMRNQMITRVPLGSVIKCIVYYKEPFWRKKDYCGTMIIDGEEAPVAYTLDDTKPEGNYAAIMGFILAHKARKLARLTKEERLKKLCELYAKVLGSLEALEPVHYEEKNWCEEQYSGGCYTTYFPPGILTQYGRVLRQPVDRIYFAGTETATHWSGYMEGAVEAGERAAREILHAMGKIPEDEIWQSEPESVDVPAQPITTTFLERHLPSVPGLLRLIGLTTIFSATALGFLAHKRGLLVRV
Experimental: These two compounds represent potent MAO inhibitors among the study compounds. […] Each line of the Lineweaver–Burk plots was constructed with the kynuramine concentration ranging from 15 to 250 μM.
The insets are replots of the slopes of the Lineweaver–Burk plots versus inhibitor concentration. The Ki value equals the negative of the x-axis intercept when y = 0
(§1) IC50 values for the inhibition of MAO were measured as described previously. Microsomes from insect cells containing recombinant human MAO-A and MAO-B (5 mg protein/mL) served as enzyme sources (Sigma-Aldrich) while kynuramine was used as non-specific MAO substrate. The enzyme reactions (200 µL reactions prepared in 96-well microtiter plates) contained phosphate buffer (100 mM, pH 7.4), 50 µM kynuramine and the test inhibitors at concentrations of 0.003–100 µM. Stock solutions of the test inhibitors were dissolved in DMSO and added to the enzyme reactions to give a final DMSO concentration of 4% (v/v). The reactions were initiated with addition of MAO-A (0.0075 mg protein/mL) or MAO-B (0.015 mg protein/mL) and after 20 min of incubation at 37 °C, the reactions were terminated by the addition of 80 µL NaOH (2 N). The concentration of 4-hydroxyquinoline, the product of kynuramine oxidation by MAO, was measured by fluorescence spectrophotometry (λex = 310 nm; λem = 400 nm). IC50 values were estimated from sigmoidal plots of enzyme catalytic rate versus the inhibitor concentration (log[I]) which were constructed with the Prism software package (GraphPad). IC50 values were estimated in triplicate determinations from these plots and are expressed as mean ± standard deviation (SD).
For each line, the concentration of kynuramine ranged from 15–250 µM.

recombinant human MAO-A = molecular target: T2, recombinant human MAO-A (Homo sapiens, UniProt P21397); assay: MAO-A inhibition, IC50 determination with kynuramine as substrate (fluorescence of 4-hydroxyquinoline); format: biochemical; details: 50 µM kynuramine, mean ± SD of triplicate, NI = no inhibition observed at 100 µM
T2 construct: purchased Sigma-Aldrich; host or cells: insect cells (microsomes)
T2 sequence (P21397 1-527): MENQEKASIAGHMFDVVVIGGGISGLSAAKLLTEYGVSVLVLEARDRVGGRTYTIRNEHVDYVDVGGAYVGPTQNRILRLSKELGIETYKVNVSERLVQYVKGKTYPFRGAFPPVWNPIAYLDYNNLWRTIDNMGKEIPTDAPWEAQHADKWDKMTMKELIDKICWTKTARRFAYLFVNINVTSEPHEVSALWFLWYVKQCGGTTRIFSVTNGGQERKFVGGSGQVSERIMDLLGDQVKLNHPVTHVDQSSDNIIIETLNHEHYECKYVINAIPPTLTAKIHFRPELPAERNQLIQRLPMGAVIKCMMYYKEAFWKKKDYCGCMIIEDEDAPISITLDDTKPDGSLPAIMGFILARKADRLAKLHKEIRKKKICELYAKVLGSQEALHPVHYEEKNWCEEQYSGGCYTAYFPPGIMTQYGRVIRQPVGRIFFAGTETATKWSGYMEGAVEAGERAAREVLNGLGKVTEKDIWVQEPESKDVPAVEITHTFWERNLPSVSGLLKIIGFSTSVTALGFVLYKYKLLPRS
Experimental: (§2) The MAO inhibition properties of the 2,1-benzisoxazole derivatives were investigated using the commercially available recombinant human MAO-A and MAO-B enzymes with kynuramine serving as substrate. MAO oxidizes kynuramine to yield 4-hydroxyquinoline, which was measured by fluorescence spectrophotometry.
(§3) For the MAO inhibition studies, a Varian Cary Eclipse fluorescence spectrophotometer was employed. Microsomes from insect cells containing recombinant human MAO-A and MAO-B (5 mg protein/mL) and kynuramine dihydrobromide were obtained from Sigma-Aldrich.
as §1, with “Stock solutions of the test inhibitors were dissolved in DMSO and added to the enzyme reactions to give a final DMSO concentration of 4% (v/v).” left out

recombinant human MAO-B [2] = molecular target: T1, recombinant human MAO-B; assay: MAO-B inhibition, IC50 determination with kynuramine as substrate (fluorescence of 4-hydroxyquinoline); format: biochemical
Experimental: as §2, §3
as §1, with “Stock solutions of the test inhibitors were dissolved in DMSO and added to the enzyme reactions to give a final DMSO concentration of 4% (v/v). The reactions were initiated with addition of MAO-A (0.0075 mg protein/mL) or MAO-B (0.015 mg protein/mL) and after 20 min of incubation at 37 °C, the reactions were terminated by the addition of 80 µL NaOH (2 N).” left out

human MAO-B = molecular target: human MAO-B; set-up: method as in PMID 21175212; details: competitive inhibitor; cited from earlier work

Compound	mode of MAO-B inhibition (recombinant human MAO-B [1]; Lineweaver–Burk lines intersect on the y-axis)	Ki (recombinant human MAO-B [1]; global (shared) fitting of the inhibition data, read-out: Ki, MAO-B, global (shared) fitting to the Michaelis–Menten equation) [nM]	Ki (recombinant human MAO-B [1]; replot of slopes versus inhibitor concentration, Ki = −x when y = 0, kynuramine 15–250 µM, read-out: Ki, MAO-B, from replot of slopes of Lineweaver–Burk plots) [nM]	IC50 (recombinant human MAO-A) [µM]	melting point [°C]	SI (selectivity index) (recombinant human MAO-B [2]; SI = IC50(MAO-A)/IC50(MAO-B))	IC50 (recombinant human MAO-B [2]; recombinant human MAO-B, 50 µM kynuramine, mean ± SD of triplicate, NI = no inhibition observed at 100 µM) [µM]	Ki (human MAO-B) [nM]
N#Cc1ccc(-c2onc3c(Cl)cc(Cl)cc23)cc1 [Compound 7a, 4-(5,7-Dichlorobenzo[c]isoxazol-3-yl)benzonitrile]	competitive	10 ± 1.5	6.2	19 ± 1.2	240 to 241	1138	0.017 ± 0.0045	–
NS(=O)(=O)Cc1noc2ccccc12 [Zonisamide, zonisamide]	–	–	–	–	–	–	–	3100
